Entries after “also recorded” stand apart in the source; their conditions may differ.
How the values were obtained:
LPS stimulated PBMCs [1] = assay: Viability of LPS stimulated PBMCs; assay type: cell-based, human; parameters: key: ↑: Induced; —: No change; ↓: Reduced
LPS stimulated PBMCs [2] = assay: Cytokine production in LPS stimulated PBMCs; assay type: cell-based, human; parameters: key to IL-2 / IFNα2 / IFSNβ / IL-4 / IL-5 / IL-6 / IL-10 / IL-13 / IL-15 / IL-17 / IL-22 / IL-1β / IL-1ra / IL-23 / IL-12p40 / IL-12p70 / TNF-α / IFNγ / MCP-1 / GM-CSF / G-CSF: ↑: Induced; —: No change; ↓: Reduced; conditions: for effect on IFN-γ production / effect on IL-12p40 production / effect on IL-12p70 production / effect on IL-23 production / effect on MCP-1 production / effect on TNF-α production: vs DMSO control
Procedure: Peripheral blood mononuclear cells (PBMCs) isolation: Whole blood was received through the Celgene Donor program after informed consent and donor deidentification. All volunteers were healthy and were not on any medications for at least 72 hours prior to the blood draw. Blood was collected in Sodium Heparin tubes and were used within 2 hours of the blood draw for PBMCs isolation. Before PBMCs isolation, whole blood was diluted 1:1 with PBS solution containing 2% FBS (2% FBS-PBS). 13 ml of Ficoll-Paque solution was loaded in the SepMate® tube and 25 ml of diluted blood was loaded on top of the Ficoll-Paque. Centrifugation at 1200 g for 15 minutes with the brake on for cell separation, after which isolated PBMCs were transferred into a new tube. PBMCs were washed with 2% FBS-PBS and centrifuged at 800 g 10 minutes. Pellets were resuspended in 2% FBS-PBS and filtered through a 40 μm cell strainer to obtain single-cell suspension. 3 ml of RBC lysis buffer were used to eliminate red blood cells in the isolated population. Isolated PBMCs were washed with 2% FBS-PBS and were resuspended in RPMI growth medium containing 10% FBS and antibiotics.
For Example 6-11, PBMCs from 9 healthy donors were isolated and LPS-stimulated ex-vivo for IL-23, IL-12p40, IL-12p70, TNF-α, IFN-γ and MCP-1 cytokine analysis. PBMCs were plated in 96 well plate at a density of 200,000 cells per well in 200 μl of RPMI growth medium containing 10% FBS followed by treatment with DMSO and compounds. Each well received the same amount of DMSO, which is 0.3% v/v as final concentration. Series dilutions of compound treatment was performed according to Table 4 shown below. After two hours of compound treatment, LPS 100 ng/ml as final concentration was used as the stimulator. PBMCs were then incubated in a 37° C./5% CO2 incubator for 16 hours.
After 16 hours incubation, supernatants were collected into new 96-well polypropylene plates and centrifuged at 4000 rpm for 10 minutes to get rid of cell debris. Cytokine production was measured by Luminex Bio-Plex Multiplex Immunoassay (Bio-Rad) according to the manufacturer's procedures. To ensure that supernatant level was within the range of the standard cytokine for the assay, samples were diluted 5 fold for IL-12p40 and 27-plex assays, and used neat for IL-23 assay.
Data processing for PBMCs assays was done using Bio-plex manager, and raw data was exported to Excel template for the cytokine analysis. Data was plotted using GraphPad Prism 7.0 (GraphPad Software, Inc., La Jolla, CA) and expressed as % of DMSO control. Statistical analysis was performed using One Way ANOVA and Tukey's multiple comparisons test.
To evaluate the combinatory effect of apremilast and BMS-986165, data from the two independent treatments were analyzed by comparing the combinatory response against the theoretical additive response of the two agents. The expected additive effect of two agents (A and B) was calculated using the fractional product method: (fu)A,B=(fu)A×(fu)B; where fu=fraction unaffected by treatment.

[3] = tested on: moderate to severe plaque psoriasis; conditions: cited from earlier work

Row | SMILES | Viability (LPS stimulated PBMCs [1]) | G-CSF (LPS stimulated PBMCs [2]; LPS stimulated PBMCs) | GM-CSF (LPS stimulated PBMCs [2]; LPS stimulated PBMCs) | IFNα2 (LPS stimulated PBMCs [2]; LPS stimulated PBMCs) | IFNγ (LPS stimulated PBMCs [2]; LPS stimulated PBMCs) | IFSNβ (LPS stimulated PBMCs [2]; LPS stimulated PBMCs) | IL-1ra (LPS stimulated PBMCs [2]; LPS stimulated PBMCs) | IL-1β (LPS stimulated PBMCs [2]; LPS stimulated PBMCs) | IL-2 (LPS stimulated PBMCs [2]; LPS stimulated PBMCs) | IL-4 (LPS stimulated PBMCs [2]; LPS stimulated PBMCs) | IL-5 (LPS stimulated PBMCs [2]; LPS stimulated PBMCs) | IL-6 (LPS stimulated PBMCs [2]; LPS stimulated PBMCs) | IL-10 (LPS stimulated PBMCs [2]; LPS stimulated PBMCs) | IL-12p40 (LPS stimulated PBMCs [2]; LPS stimulated PBMCs) | IL-12p70 (LPS stimulated PBMCs [2]; LPS stimulated PBMCs) | IL-13 (LPS stimulated PBMCs [2]; LPS stimulated PBMCs) | IL-15 (LPS stimulated PBMCs [2]; LPS stimulated PBMCs) | IL-17 (LPS stimulated PBMCs [2]; LPS stimulated PBMCs) | IL-22 (LPS stimulated PBMCs [2]; LPS stimulated PBMCs) | IL-23 (LPS stimulated PBMCs [2]; LPS stimulated PBMCs) | further results
1 | [2H]C([2H])([2H])NC(=O)c1nnc(NC(=O)C2CC2)cc1Nc1cccc(-c2ncn(C)n2)c1OC [BMS-986165, 6-(cyclopropanecarboxamido)-4-((2-methoxy-3-(1-methyl-1H-1,2,4-triazol-3-yl)phenyl)amino)-N-(methyl-d3)pyridazine-3-carboxamide] | — | ↑ | ↑ | — | ↓ | — | ↓ | — | — | — | — | — | — | ↑ | ↑ | ↑ | — | — | — | ↑↑ | increase of IL-23 compared to DMSO group (LPS stimulated PBMCs [2]; 0.2 μM-2 μM BMS-986165): 20 fold; MCP-1 (LPS stimulated PBMCs [2]; LPS stimulated PBMCs): ↓; TNF-α (LPS stimulated PBMCs [2]; LPS stimulated PBMCs): ↑; effect on IL-12 (LPS stimulated PBMCs [2]; LPS stimulated PBMCs): increased; increase of TNF-α (LPS stimulated PBMCs [2]; LPS stimulated PBMCs, BMS-986165 alone): 1.2-1.5 fold; effect on IFN-γ production (LPS stimulated PBMCs [2]; LPS stimulated PBMCs): decreased; also recorded: reduced; effect on IL-12p40 production (LPS stimulated PBMCs [2]; LPS stimulated PBMCs): increased; also recorded: induced; effect on IL-12p70 production (LPS stimulated PBMCs [2]; LPS stimulated PBMCs): increased; also recorded: induced; effect on IL-23 production (LPS stimulated PBMCs [2]; LPS stimulated PBMCs): induced; also recorded: increased; effect on MCP-1 production (LPS stimulated PBMCs [2]; LPS stimulated PBMCs): decreased; also recorded: reduced; effect on TNF-α production (LPS stimulated PBMCs [2]; LPS stimulated PBMCs): induced; also recorded: increased; phase 2 clinical trial outcome ([3]; subjects with moderate to severe plaque psoriasis): positive results
2 | CCOc1cc([C@@H](CS(C)(=O)=O)N2C(=O)c3cccc(NC(C)=O)c3C2=O)ccc1OC [Apremilast, N-[2-[(1S)-1-(3-ethoxy-4-methoxyphenyl)-2-(methylsulfonyl)ethyl]-2,3-dihydro-1,3-dioxo-1H-isoindol-4-yl]acetamide] | — | ↑ | ↓ | — | ↓ | — | — | — | ↓ | — | — | — | ↑ | ↓ | ↓ | — | — | — | — | ↓ | MCP-1 (LPS stimulated PBMCs [2]; LPS stimulated PBMCs): ↓; TNF-α (LPS stimulated PBMCs [2]; LPS stimulated PBMCs): ↓; effect on IL-12 (LPS stimulated PBMCs [2]; LPS stimulated PBMCs): inhibited; effect on IFN-γ production (LPS stimulated PBMCs [2]; LPS stimulated PBMCs): decreased; also recorded: reduced; effect on IL-12p40 production (LPS stimulated PBMCs [2]; LPS stimulated PBMCs): decreased; effect on IL-12p70 production (LPS stimulated PBMCs [2]; LPS stimulated PBMCs): decreased; effect on IL-23 production (LPS stimulated PBMCs [2]; LPS stimulated PBMCs): decreased; also recorded: inhibited; effect on MCP-1 production (LPS stimulated PBMCs [2]; LPS stimulated PBMCs): decreased; also recorded: reduced; effect on TNF-α production (LPS stimulated PBMCs [2]; LPS stimulated PBMCs): decreased; also recorded: inhibited; reduction in plaque psoriasis ([3]; achievable in some patients, just over 4 months of treatment): 75%

Reference: patent US20250235450A1, “COMBINATION THERAPIES COMPRISING APREMILAST AND TYK2 INHIBITORS” (Celgene Corporation, priority 2019, published 2025)
